Values of other authors in patent US6562869B1, “Nutritional supplement for increased energy and stamina” (Juvenon, Inc., priority 1999, dated 2003).
Where two headings read alike, the source gives them in different places.

Key:
[1] = tested on: male rats
[2] = tested on: striatal nerves; details: Q10 diet four weeks before and one week after MPTP
[3] = set-up: dose or concentration left out as unconfirmed; details: woman deficient in Q10
[4] = daily up to 200 mg for 6 to 12 months and 100 mg daily for up to 6 years
[5] = tested on: cardiac tissue
[6] = tested on: senescent myocardium; details: rats
[7] = tested on: apoptosis; details: through its action in the mitochondria
[8] = tested on: oxidative phosphorylation in skeletal muscles and brains; details: patients with mitochondrial cytopathies due to enzyme defects
[9] = tested on: male mice; details: life-long supplementation
[10] = tested on: heart functions
[11] = tested on: human plasma LDL phospholipids; details: healthy Finnish men and women aged 28-77, supplementation
[12] = tested on: human atrial tissue
[13] = tested on: carnitine-acyl-carnitine exchange across the inner mitochondrial membrane
[14] = tested on: aged rats
[15] = tested on: oxidant production; details: carnitine supplementation
[16] = tested on: phosphocreatine (PCr)
[17] = older adults 67-80 years, 8 weeks
[18] = tested on: skeletal muscle; details: older individuals aged 40-73, 20 g/day, one week
[19] = men over 60, 5 days
[20] = tested on: human lymphocytes

COC1=C(OC)C(=O)C(C/C=C(\C)CC/C=C(\C)CC/C=C(\C)CC/C=C(\C)CC/C=C(\C)CC/C=C(\C)CC/C=C(\C)CC/C=C(\C)CC/C=C(\C)CCC=C(C)C)=C(C)C1=O [Example Q10, Coenzyme Q10]
Q10 levels in kidney, heart and brain ([1]; Q10 supplementation): not affected
lifespan ([1]; life-long supplementation, rats): did not prolong or shorten
plasma and liver Q10 levels ([1]; supplemented rats): 2.6-8.4 times higher
dopamine, higher than control diet [2]: 37%
more dense neurons than control diet [2]: 62%
clinical response [3]: rapidly improved
adverse effects [4]: No important adverse effects
effects of doxorubicin ([5]; cardiac tissue): blocks the effects of doxorubicin
tolerance of the senescent myocardium to aerobic and ischemic stress [6]: improves the tolerance
programmed cell death, or apoptosis [7]: appears to block
oxidative phosphorylation in skeletal muscles and brains [8]: marked improvement
lifespan [9]: did not prolong or shorten
heart functions ([10]; old rats): improve heart functions
heart functions ([10]; young rats): not significantly affect
peroxyl radical trapping capacity [11]: doubled
tolerance of the senescent myocardium to aerobic and ischemic stress [12]: improves the tolerance

C[N+](C)(C)C[C@H](O)CC(=O)[O-] [L-carnitine]
age-related dysfunction of carnitine-acyl-carnitine exchange [13]: slow or reverse

O=C(O)CCCC[C@@H]1CCSS1 [R-α-lipoic acid]
ambulatory activity of aged rats ([14]; aged rats): triple
age-related decline in mitochondrial membrane potential ([14]; supplementation): restore
age-related decrease in oxygen consumption ([14]; supplementation): reverse
age-related increase in oxidants ([14]; supplementation): significantly lower
glutathione and ascorbic acid levels ([14]; supplementation): to youthful levels

CC(=O)O[C@H](CC(=O)[O-])C[N+](C)(C)C [acetyl-L-carnitine]
age-related dysfunction of carnitine-acyl-carnitine exchange [13]: slow or reverse

C[N+](C)(C)CC(O)CC(=O)[O-] (centres unmarked) [carnitine]
cell antioxidants [15]: decreased cell antioxidants markedly
oxidant production increase [15]: 30%

CN(CC(=O)O)C(=N)N [creatine]
safety (about 1.5 g/day to about 25 g/day for at least a year): safe
adverse effects (athletes, doses up to 75 grams a day for years, aside from weight gain): without known adverse effects
time to exhaustion ([16]; both groups combined): increased
resting PCr increase ([16]; middle-aged group (50-year-olds), P<0.05): 30%
mean initial PCr resynthesis rate ([16]; middle-aged group, P<0.05): increased significantly
resting PCr increase ([16]; young group (30-year-olds), P<0.05): 15%
1- and 12-repetitions maxima, effect of creatine supplementation [17]: no beneficial effect
skeletal muscle strength and endurance [18]: increased
isokinetic performance and body mass [19]: only small increases
isometric strength [19]: no effect

COc1cccc2c1C(=O)c1c(O)c3c(c(O)c1C2=O)C[C@@](O)(C(=O)CO)C[C@@H]3O[C@H]1C[C@H](N)[C@H](O)[C@H](C)O1 [doxorubicin]
mitochondrial oxidant production [5]: stimulates
mtDNA deletions in cardiac tissue ([5]; cardiac tissue): marked increase

COc1c(O)c(C)c(C/C=C(\C)CC/C=C(\C)CC/C=C(\C)CC/C=C(\C)CC/C=C(\C)CC/C=C(\C)CC/C=C(\C)CC/C=C(\C)CC/C=C(\C)CCC=C(C)C)c(O)c1OC [ubiquinol-10]
oxidative damage to DNA of human lymphocytes [20]: appears to protect
